This is an account of results in article PMC9083030 (RSC Advances, 2018).

This assay has as its system QGY-7701 cell line. The experiment in a line: CCK-8 cell proliferation assay, QGY-7701. The format is cell-based, human. Conditions: read-out: IC50 QGY-7701; CCK8, 72 h of treatment. In general terms: Tetrazolium dyes change colour on reduction, which living cells bring about.

The structures appear in SMILES notation.

For orientation: IC50 means the concentration that gives 50% inhibition.

Turning to `N.N.[Cl][Pt][Cl]` [Cisplatin], the 50% inhibitory concentration (IC50) came out at 8.75 ± 0.26 µM.
